Assay results from patent EP4721744A1, “PHARMACEUTICAL COMPOSITION COMPRISING CEPHALOSPORIN ANTIBACTERIAL COMPOUND” (Jiangsu Hengrui Pharmaceuticals Co., Ltd., priority 2023, dated 2024).

Legend:
[1] = Solubility test in different solvent systems; format: physicochemical
Procedure: Different solvent systems were prepared to test the solubility of the compound as shown in formula (I). Table 1 Solubility test

[2] = bulk compound; needs to be stored at or below -60°C; cited from earlier work
[3] = Purified water + 1 M NaOH solution for pH adjustment, 4.9 ml, charging amount 500.4 mg
[4] = Purified water, 250 mL, charging amount 20.01 mg

CC(C)(O/N=C(\C(=O)N[C@@H]1C(=O)N2C(C(=O)[O-])=C(C[N+]3(CCCN(CCCNC(=O)c4ccc(O)c(O)c4Cl)C(=O)c4ccc(O)c(O)c4Cl)CCCC3)CS[C@H]12)c1csc(N)n1)C(=O)O [compound as shown in formula (I)]
Dissolution Status ([1]; Hydrochloric acid (pH 1.0), 200 mL, charging amount 19.99 mg): Incomplete dissolution
Dissolution Status [1, 3]: Complete dissolution
Solution pH after complete dissolution [1, 3]: 5.08
Dissolution Status ([1]; Purified water, 20 mL, charging amount 20.01 mg): Incomplete dissolution
Dissolution Status [1, 4]: Complete dissolution
Solution pH after complete dissolution [1, 4]: 3.6
solubility ([1]; Purified water, 250 mL, solution pH 3.6): < 1 mg/mL
solubility ([1]; purified water adjusted with 1 M NaOH solution, aqueous buffer, Purified water + 1 M NaOH solution for pH adjustment, 4.9 ml, solution pH 5.08): ≥ 100 mg/mL
stability [2]: extremely poor stability
